Experimental findings from patent US5880146A, “Inhibition of IL-12-induced IFN-γ synthesis by specific bis-phenol compounds as a method of immune modulation” (Fuji ImmunoPharmaceuticals Corporation, priority 1995, dated 1999) are described below.

Series [1] deals with IL-12 induction of IFN-γ in PHA-activated human PBMC. The series is described as follows: Screening assay for compounds which inhibit IL-12 induction of IFN-γ (ELISA). It counts as cell-based. The settings on record: 5 μg/ml, IL-2 25 U/ml + IL-12 0.5 ng/ml, 48 hr, single test, read-out: % INH of IFNγ. The method, then:
Human peripheral blood monocytes (PBMC) were obtained from commercial sources as a leukophoresis from a healthy volunteer and were purified by centrifugation on a Ficoll-Hypaque (Pharmacia) gradient (1700 rpm for 20 min). The "buffy" coat containing the PBMC was diluted with serum-free culture medium (SF-RPMI) to a volume of 50 ml and collected by centrifugation at 1500 rpm for 5 min. Cells were resuspended in cell culture medium containing 10% fetal bovine serum (RPMI-10) and phytohemaglutinin (PHA - 10 μg/ml) at a density of 5×10^6 cells/ml and were cultured for 3 days at 37° C. in a humidified CO2 incubator. The PHA-activated cells were collected by centrifugation, washed three times with an equal volume of SF-RPMI and resuspended in fresh RPMI-10 (1×10^6 cells /ml). Aliquots (100 μl) were dispensed into the wells of multiple 96-well plates to give a final cell number of 10^5 per well. Test compounds, dissolved in dimethyl sulfoxide (DMSO) at 1 mg/ml, were first diluted in culture medium to an intermediate concentration of 20 μg/ml and then were added (50 μwell) to a specific well of the plate for each compound. Stimulation medium (50 μl/well) containing 10% serum, IL-2 and IL-12 was added to final concentrations of 25 U/ml and 0.5 ng/ml, respectively. Control wells receive no IL-2 or IL-12 (negative control) or received both interleukins but no test compound (positive control). The plates were incubated for 48 hr at 37° C. in a CO2 incubator at which time aliquots (20 μl) were removed for analysis of IFN-γ concentration by ELISA. A quantitative ELISA was developed by coating 96-well plates with an mouse monoclonal antibody against human IFN-γ, 1 μg/ml in phosphate buffered saline (PBS) (Pestka Biological Laboratories), overnight at 4° C. Unbound antibody was washed off by washing three times with PBS. Non-specific antibody binding was blocked with a solution of 1% bovine serum albumin (BSA) and 1% goat serum in PBS (150 μl/well) which was incubated for 2 hr at 37° C. After washing the blocked plates four times with PBS, test samples and dilutions of the IFN-γ standard are added in a final volume of 100 μl/well. Following an overnight incubation at 4° C., the plates are washed four times with PBS, and a polyclonal rabbit antiserum against human IFN-γ (1/10000 dilution--Petska Biological Laboratories) is added. After an additional incubation for 1 hr at 37° C. and four washes with PBS, a polyclonal donkey anti-rabbit detecting antibody, conjugated to horseradish peroxidase (1/700 dilution--Petska Biological Laboratories) is added for 1 hr at 37° C. The plates are then washed four times with PBS and 100 μl of K-blue substrate E(ILISA Technologies, Neogen Corp.) is added until the color in the wells containing the standard curve is sufficiently developed, at which time 100 μl of "Red-stop" solution (ELISA Technologies) is added. The absorbance of the solution within each well of the plate is then read at 650 nm using an ELISA plate reader (Dynatech MR7000). The amount of IFN-γ is calculated by comparing the optical density of the test sample with a standard curve derived from the dilutions of the control IFN-y. The amount of IFN-γ that is induced in the presence of both IL-2 and IL-12 generally ranges from 1200-2000 pg/ml while the amount produced in the absence of IL-12 is generally less than 50 pg/ml. Experimental data are shown in Table 2 which discloses a) the percent inhibition of IFNγ production, relative to a […], when the cells have been treated with a bis-compound at a final concentration of 5 μg/ml of the listed bis-compound (%INH or IFNγ) and b) the percent of cells which are viable after the treatment with 5 μg/ml of the various bis-compounds, determined by adding MTS to the media (% Viability). MTS is a chemical chromophore that is metabolized in the mitochondria of viable cells to produce a color which increases in intensity in proportion to the numbers of viable cells. […]

A short description of series [2]: Toxicity of bis-compounds after single systemic dose. It counts as in vivo. The conditions noted are these: mouse, in vivo, iv, 20% DMSO, 16% cremaphor, single dose.
Series [3] has as its system mice. The series is described as above. In kind it is in vivo. The settings on record: 20% DMSO, 16% cremaphor.

Molecules are shown by their SMILES. Some results are limits rather than exact numbers.

With `Cc1cc(C)c(O)c(C(CC(C)CC(C)(C)C)c2cc(C)cc(C)c2O)c1` (centres unmarked) [Compound 51853, bis-1,1-[2-hydroxy-3,5-dimethylphenyl]-3,5,5-dimethyl hexan], the inhibition at 5 µg/mL in series [1] was determined as 104%. The figures for the LD50 in series [2] (conc. sol. 10 mg/ml) and in series [2] (conc. sol. 15 mg/ml) were 100 to 150 mg/kg and more than 200 mg/kg, respectively. Besides, the “Results (Dead/Alive)” value in series [3] (100 mg/kg IV, 10 mg/ml) is given as “Alive”; in series [3] (150 mg/kg IV, 10 mg/ml) it was “Dead”; in series [3] (150 mg/kg IV, 15 mg/ml), “Alive”; in series [3] (200 mg/kg IV, 15 mg/ml) it was “Alive”.
Consider `CCCCCCCC(c1cc(C)cc(C)c1O)c1cc(C)cc(C)c1O` [Compound 51852], for which, in series [1], the inhibition at 5 µg/mL was determined as 109%.
